Assay results reported in ChEMBL document CHEMBL4402607, “Molecular Basis for Omapatrilat and Sampatrilat Binding to Neprilysin-Implications for Dual Inhibitor Design with Angiotensin-Converting Enzyme” (J Med Chem, 2020).

Experiments:
[1] = biological target: Angiotensin-converting enzyme (Homo sapiens) (UniProt P12821); experiment: Selectivity index, ratio of Ki for human somatic ACE N-terminal domain to human somatic ACE C-terminal domain using MCA-RPPGFSAFK-Dnp-OH as substrate by fluorescence based analysis
[2] = biological target: Angiotensin-converting enzyme (Homo sapiens) (UniProt P12821); experiment: Selectivity index, ratio of Ki for human ACE N-domain soluble form (1 to 629 residues) expressed in CHO cells to Ki for human testis ACE C-domain lacking unique O-glycosylated region, transmembrane anchor and cytoplasmic tail expressed in CHO cells; assay type: cell-based
[3] = biological target: Angiotensin-converting enzyme (Homo sapiens) (UniProt P12821); experiment: Selectivity index, ratio of Ki for human wild type ACE N-domain to Ki for human testis ACE C-domain (unknown origin) using Abz-FRK(Dnp)P-OH as substrate by fluorescence based analysis

Chain of Angiotensin-converting enzyme (Homo sapiens) (P12821 whole entry, the tested form may be a part): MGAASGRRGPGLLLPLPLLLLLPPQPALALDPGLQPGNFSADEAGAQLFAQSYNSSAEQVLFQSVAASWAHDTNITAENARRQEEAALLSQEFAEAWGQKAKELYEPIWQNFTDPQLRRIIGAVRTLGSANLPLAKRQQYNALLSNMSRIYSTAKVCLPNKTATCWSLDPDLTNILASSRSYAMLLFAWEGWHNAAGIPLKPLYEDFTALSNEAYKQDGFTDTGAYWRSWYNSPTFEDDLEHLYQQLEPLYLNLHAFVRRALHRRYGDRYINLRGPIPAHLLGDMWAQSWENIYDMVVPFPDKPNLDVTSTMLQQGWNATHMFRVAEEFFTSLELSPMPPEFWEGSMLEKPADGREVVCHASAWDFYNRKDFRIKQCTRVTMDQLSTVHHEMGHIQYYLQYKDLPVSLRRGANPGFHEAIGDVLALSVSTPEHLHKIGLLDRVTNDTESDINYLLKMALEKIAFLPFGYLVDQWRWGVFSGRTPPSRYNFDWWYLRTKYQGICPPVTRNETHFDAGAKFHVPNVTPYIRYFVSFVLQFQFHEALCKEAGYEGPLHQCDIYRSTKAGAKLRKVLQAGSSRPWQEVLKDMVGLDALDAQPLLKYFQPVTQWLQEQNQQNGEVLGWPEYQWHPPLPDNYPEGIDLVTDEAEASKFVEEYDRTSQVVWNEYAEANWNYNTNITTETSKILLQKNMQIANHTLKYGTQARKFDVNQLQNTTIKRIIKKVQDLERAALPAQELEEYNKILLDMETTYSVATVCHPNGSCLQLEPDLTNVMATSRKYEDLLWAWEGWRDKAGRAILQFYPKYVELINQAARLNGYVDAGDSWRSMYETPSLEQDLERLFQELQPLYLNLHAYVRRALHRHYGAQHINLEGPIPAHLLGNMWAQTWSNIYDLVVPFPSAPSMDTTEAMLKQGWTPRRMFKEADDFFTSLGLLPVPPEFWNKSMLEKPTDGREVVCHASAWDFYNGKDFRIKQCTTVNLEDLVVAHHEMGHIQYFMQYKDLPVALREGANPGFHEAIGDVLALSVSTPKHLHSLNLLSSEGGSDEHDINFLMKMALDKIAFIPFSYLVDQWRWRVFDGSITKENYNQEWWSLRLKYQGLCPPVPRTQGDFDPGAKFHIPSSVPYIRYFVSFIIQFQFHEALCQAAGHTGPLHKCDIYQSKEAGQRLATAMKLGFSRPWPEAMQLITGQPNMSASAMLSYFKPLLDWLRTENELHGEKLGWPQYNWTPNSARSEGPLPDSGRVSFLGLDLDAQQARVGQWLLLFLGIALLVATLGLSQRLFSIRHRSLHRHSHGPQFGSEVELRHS

SMILES | Ratio Ki [3] | further results
O=C(N[C@@H](Cc1ccccc1)P(=O)(O)[C@@H]1CCC[C@H]1C(=O)N[C@@H](Cc1c[nH]c2ccccc12)C(=O)O)OCc1ccccc1 | – | Ratio Ki [1]: 3000
CS(=O)(=O)N[C@@H](CCCCN)C(=O)NC[C@H](CC1(C(=O)N[C@@H](Cc2ccc(O)cc2)C(=O)O)CCCC1)C(=O)O | – | Ratio Ki [2]: 12.5
NCCCC[C@H](N[C@@H](CCc1ccccc1)C(=O)O)C(=O)N[C@H](Cc1c[nH]c2ccccc12)C(=O)O | 243 | –
NCCCC[C@H](N[C@@H](CCc1ccccc1)C(=O)O)C(=O)N1CCC[C@H]1C(=O)O | 4 | –
